Experimental data from patent publication US20230013402A1, “REGENERATING FUNCTIONS AND PHENOTYPES OF CONNECTIVE TISSUE THROUGH NPAS2 SUPPRESSION” (The Regents of the University of California, priority 2019, published 2023).
Where a name gives a salt, the structure may show the parent alone. Read-outs that look alike come from different tables or passages of the source.

Tests used:
[1] = tested on: Npas2-LacZ reporter gene (Npas2 expression); assay: High throughput screening of FDA Approved Drug Library for Npas2-LacZ reporter expression; format: cell-based, mouse
Excerpt: (§1) Mouse MSC carrying Npas2-LacZ reporter gene, as described by Hassan N, et al., PLoS One. 2017; 12(8):e0183359, which is incorporated by reference herein in its entirety, was immortalized using SV40 in order to accommodate a large-scale HTS. […] This cell system was used to screen FDA Approved Drug Library (1120 compounds). The same library was also screened for cell viability by Calcein AM Hoechst 33342 staining Cell migration assays using the Oris™ Pro Cell Migration Assay plate, as described by Joy M E et al., PloS one. 2014; 9(2):e88350, which is incorporated by reference herein in its entirety, was used for a high-throughput migration assay using human skin fibroblasts
(§2) The combined Z score was used to identify hit compounds (Table 1).

human skin fibroblasts = assay: High-throughput cell migration assay (Oris Pro Cell Migration Assay plate) / standardized viability; format: cell-based
Excerpt: as §1, §2

Npas2-LacZ expression = assay: High throughput screening of LOPAC1280 for Npas2-LacZ expression of mouse BMSC; format: cell-based; set-up: concentration or dose not given beside the values; details: Activity against negative controls in LOPAC screening; Npas2 downregulation
Excerpt: FIGS. 13A-13C show an unbiased chemical genetics analysis was used to determine the molecular mechanisms underlying implant osseointegration. […] Hit compounds were identified as z-score >2.5 or <−2.5.
Femur BMSC derived from Npas2−/− mouse was previously characterized for the expression of LacZ, as described by Hassan, N., et al., (2017) Titanium biomaterials with complex surfaces induced aberrant peripheral circadian rhythms in bone marrow mesenchymal stromal cells. PLoS One 12, e0183359, which is incorporated by reference herein in its entirety, which was used for high throughput screening of LOPAC 1280 (FIG. 13A). […] The validation study identified a total of 14 compounds (FIG. 13C), which were subjected to the chemical genetics analysis. […] By contrast, Npas2 down regulating compounds stimulate or accumulate cAMP, or induce cAMP response element binding (CREB) activation (Table 3).

fibroblasts = details: in vitro, compared to vehicle; cited from earlier work
[2] = Table 2, additional Npas2 expression suppressors
[3] = Table 1, HTS of FDA Drug Library
[4] = Table 1, combined Z score (product)

With `OCC(O)CN1CCN(c2ccccc2)CC1` (racemic) [Dropropizine (R,S)] the “NPAS2 Z Score” value [1, 2] was −2.27 and the “Migration (standardized viability) Z Score” value (shortened to “Migration”) (human skin fibroblasts; [2]) was −1.21.

In the case of `CCCCCC[C@H]1C(=O)O[C@H](C)[C@H](NC(=O)c2cccc(NC=O)c2O)C(=O)O[C@@H](C)[C@@H]1OC(=O)CC(C)C` (stereo in doubt) [Antimycin A], the “NPAS2 Z Score” value [1, 3] is reported as −2.72, the “NPAS Z × ViabilityZ” value [1, 4] is reported as −5.79 and the “Migration” value (human skin fibroblasts; [3]) is reported as 2.13.

With `CC(C)NC[C@H](O)COc1ccc(CC(N)=O)cc1` [(S)-(-)-Atenolol, (S)-(−)-Atenolol] the “NPAS2 Z Score” value [1] was −2.

In the case of `CC(=O)OC1CN2CCC1CC2.Cl` (stereo not drawn) [Aceclidine Hydrochloride], the “NPAS2 Z Score” value [1, 2] is reported as −2.2 and the “Migration” value (human skin fibroblasts; [2]) is reported as 0.198.

For `O=C(O)COC(=O)Cc1ccccc1Nc1c(Cl)cccc1Cl` [Aceclofenac], the “NPAS2 Z Score” value [1, 2] was −2.16 and the “Migration” value (human skin fibroblasts; [2]) was 0.666.

With `CCCNC(C)C(=O)Nc1c(C)csc1C(=O)OC.Cl` (stereo not drawn) [Articaine hydrochloride] the “NPAS2 Z Score” value [1, 2] was −2.02 and the “Migration” value (human skin fibroblasts; [2]) was −0.466.

With `CN1[C@@H]2CC[C@H]1CC(OC(=O)C(CO)c1ccccc1)C2.CN1[C@@H]2CC[C@H]1CC(OC(=O)C(CO)c1ccccc1)C2.O.O=S(=O)(O)O` (stereo partly drawn) [Atropine sulfate monohydrate] the “NPAS2 Z Score” value [1, 2] was −2.04 and the “NpasZ × ViabilityZ” value ([1]; Table 2, combined Z score (product)) was −0.3692.

For `CN(Cc1ccc(C(C)(C)C)cc1)Cc1cccc2ccccc12.Cl` [Butenafine Hydrochloride], the “NPAS2 Z Score” value [1, 2] was −2.02 and the “Migration” value (human skin fibroblasts; [2]) was 0.239.

In the case of `NC(=O)OCC(O)COc1ccc(Cl)cc1` (stereo not drawn) [Chlorphensin carbamate], the “NPAS2 Z Score” value [1, 2] is reported as −2.36 and the “Migration” value (human skin fibroblasts; [2]) is reported as −0.157.

With `C[C@@H]1C[C@@H]([C@H](O)CC2CC(=O)NC(=O)C2)C(=O)[C@@H](C)C1` [Cycloheximide] the “NPAS2 Z Score” value [1, 2] was −3.29 and the “Migration” value (human skin fibroblasts; [2]) was −4.91.

In the case of `COc1cccc2c1C(=O)c1c(O)c3c(c(O)c1C2=O)C[C@@](O)(C(C)=O)C[C@@H]3O[C@H]1CC(N)[C@H](O)C(C)O1.Cl` (stereo partly drawn) [Daunorubicin hydrochloride], the “NPAS2 Z Score” value [1, 2] is reported as −2.45 and the “Migration” value (human skin fibroblasts; [2]) is reported as −4.56.

In the case of `CCN(CC)C(=O)N1CCN(C)CC1.O=C(O)CC(O)(CC(=O)O)C(=O)O` [Diethylcarbamazine citrate], the “NPAS2 Z Score” value [1, 2] is reported as −2.36 and the “Migration” value (human skin fibroblasts; [2]) is reported as −2.08.

With `O=C(OC1C[C@@H]2CC3C[C@H](C1)N2CC3=O)c1c[nH]c2ccccc12` (stereo partly drawn) [Dolasetron mesilate] the “NPAS2 Z Score” value [1, 2] was −2.64 and the “Migration” value (human skin fibroblasts; [2]) was −1.91.

With `C[C@H]1CCC/C=C/[C@@H]2C[C@H](O)C[C@H]2[C@H](O)/C=C/C(=O)O1` [Down01, Brefeldin A] the “% Activity” value (Npas2-LacZ expression) was −45.4%.

With `COc1cc2c(c(OC)c1OC)-c1ccc(OC)c(=O)cc1[C@@H](NC(C)=O)CC2` [Down03, Colchicine] the “% Activity” value (Npas2-LacZ expression) was −29.7%.

In the case of `CC[n+]1c(/C=C/C=C2/N(C)c3ccccc3C2(C)C)sc2ccccc21.[I-]` [Down06, AC-93253 iodide], the “% Activity” value (Npas2-LacZ expression) is reported as −25.1%.

With `c1ccc2c(c1)[I+]c1ccccc1-2` [Down08, Diphenyleneiodonium chloride] the “% Activity” value (Npas2-LacZ expression) was −18.6%.

With `COc1cc([C@@H]2c3cc4c(cc3[C@H](O)[C@H]3COC(=O)[C@H]23)OCO4)cc(OC)c1OC` [Down10, Podophyllotoxin] the “% Activity” value (Npas2-LacZ expression) was −15.6%.

With `C/C=C(/C)C(=O)O[C@H]1C(C)=C2[C@H]([C@@H]1OC(=O)CCCCCCC)[C@@](C)(OC(C)=O)C[C@H](OC(=O)CCC)[C@@]1(O)[C@H]2OC(=O)[C@@]1(C)O` [Down12, THAPSIGARGIN] the “% Activity” value (Npas2-LacZ expression) was −43.5%.

For `CCN(CC)CCOc1ccc(Nc2ncc3cc(-c4c(Cl)cccc4Cl)c(=O)n(C)c3n2)cc1` [Down13, PD-166285 hydrate], the “% Activity” value (Npas2-LacZ expression) was −35.5%.

With `Cn1c(=O)c(-c2c(Cl)cccc2Cl)cc2cnc(Nc3ccc(N4CCOCC4)cc3)nc21` [Down14, PD-173952] the “% Activity” value (Npas2-LacZ expression) was −33.0%.

For `Clc1ccc(COC(Cn2ccnc2)c2ccc(Cl)cc2Cl)cc1` (stereo not drawn) [Econazole nitrate], the “NPAS2 Z Score” value [1, 2] was −2.41 and the “Migration” value (human skin fibroblasts; [2]) was 0.805.

In the case of `C[C@]12CC[C@@H]3c4ccc(O)cc4CC[C@H]3[C@@H]1CCC2=O` [Estrone], the “NPAS2 Z Score” value [1, 2] is reported as −2.01 and the “Migration” value (human skin fibroblasts; [2]) is reported as −2.56.

In the case of `O=[N+]([O-])O[C@@H]1CO[C@H]2[C@@H]1OC[C@@H]2O` [Isosorbide mononitrate], the “NPAS2 Z Score” value [1, 2] is reported as −2.01 and the “Migration” value (human skin fibroblasts; [2]) is reported as 0.647.

With `S=c1nc[nH]c2nc[nH]c12` [MS-1500387, Mercaptopurine] the “NPAS2 Z Score” value [1, 2] was −2.08 and the “Migration” value (human skin fibroblasts; [2]) was 0.577.

With `CCOC(=O)[C@H](CCc1ccccc1)N[C@@H](C)C(=O)N1CCC[C@H]1C(=O)O` [MS-1501214, enalapril maleate] the “NPAS2 Z Score” value [1, 2] was −3.22 and the “Migration” value (human skin fibroblasts; [2]) was −1.53.

For `Cl.NCc1ccc(S(N)(=O)=O)cc1` [Mafenide hydrochloride], the “NPAS2 Z Score” value [1, 2] was −2.8 and the “Migration” value (human skin fibroblasts; [2]) was −0.188.

With `CCN(CC)CCNC(=O)COc1ccc(OC)cc1.Cl` [Mefexamide hydrochloride, mefexamide hydrochloride] the “NPAS2 Z Score” value [1, 3] was −2.06, the “NPAS Z × ViabilityZ” value [1, 4] was −2.31 and the “Migration” value (human skin fibroblasts; [3]) was 1.12.

With `CCc1c(C)[nH]c2c1C(=O)C(CN1CCOCC1)CC2.Cl` (stereo not drawn) [Molindone hydrochloride] the “NPAS2 Z Score” value [1, 3] was −2.1, the “NPAS Z × ViabilityZ” value [1, 4] was −2.56 and the “Migration” value (human skin fibroblasts; [3]) was 1.22.

In the case of `CC[C@@]1([C@@H]2OC(C3O[C@@](O)(CO)[C@H](C)C[C@@H]3C)C[C@@H]2C)CC[C@H]([C@]2(C)CC[C@@]3(C[C@H](O)[C@@H](C)C([C@@H](C)[C@@H](OC)[C@H](C)C(=O)O)O3)O2)O1` (stereo partly drawn) [Monensin sodium salt], the “NPAS2 Z Score” value [1, 2] is reported as −4.34 and the “Migration” value (human skin fibroblasts; [2]) is reported as −8.13.

In the case of `Cc1c(NC(=O)c2cccnc2)c(=O)n(-c2ccccc2)n1C` [Nifenazone], the “NPAS2 Z Score” value [1, 2] is reported as −2.41 and the “Migration” value (human skin fibroblasts; [2]) is reported as −0.243.

For `O=C(O)c1cccnc1Nc1cccc(C(F)(F)F)c1` [Niflumic Acid, Niflumic acid], the “NPAS2 Z Score” value [1, 3] was −1.99, the “NPAS Z × ViabilityZ” value [1, 4] was −3.56 and the “Migration” value (human skin fibroblasts; [3]) was 1.79.

With `O=C(N/N=C/c1ccc([N+](=O)[O-])o1)c1ccc(O)cc1` [Nifuroxazide] the “NPAS2 Z Score” value [1, 2] was −3.43 and the “Migration” value (human skin fibroblasts; [2]) was −0.402.

For `CC[C@H](C)C(=O)O[C@H]1C[C@H](O)C=C2C=C[C@H](C)[C@H](CC[C@@H](O)C[C@@H](O)CC(=O)O)[C@H]21` [Pravastatin], the “NPAS2 Z Score” value [1, 2] was −2.16 and the “Migration” value (human skin fibroblasts; [2]) was 0.64.

In the case of `C[C@]12C=CC(=O)C=C1CC[C@@H]1[C@@H]2[C@@H](O)C[C@@]2(C)[C@H]1CC[C@]2(O)C(=O)CO` [Prednisolone], the “NPAS2 Z Score” value [1, 2] is reported as −2.42 and the “Migration” value (human skin fibroblasts; [2]) is reported as −2.31.

With `CNCC[C@@H](Oc1ccccc1C)c1ccccc1` [SAM001246626, Atomoxetine hydrochloride] the “NPAS2 Z Score” value [1, 2] was −2.6 and the “Migration” value (human skin fibroblasts; [2]) was −0.749.

In the case of `Cn1cnc2c1c(=O)[nH]c(=O)n2C` [Theobromine], the “NPAS2 Z Score” value [1, 2] is reported as −2.04 and the “Migration” value (human skin fibroblasts; [2]) is reported as −0.6.

For `CN1C(=O)OC(C)(C)C1=O` [Trimethadione], the “NPAS2 Z Score” value [1, 2] was −2.74 and the “Migration” value (human skin fibroblasts; [2]) was −0.105.

For `NCCc1c[nH]c2ccc(O)cc12` [serotonin], the “Width of scratch zone” value (fibroblasts) is listed as “reduced”.

In the case of Tyloxapol, the “NPAS2 Z Score” value [1] is reported as −2.39, the “NpasZ × ViabilityZ” value [1] is reported as −1.367 and the “Migration” value (human skin fibroblasts) is reported as 0.572.
